# Where “and” joins values, the source holds several entries; their conditions need not be identical. Identical values can stand only once. Like-named read-outs stand apart in the source and are kept apart here. Numbered stars: 1 amine (or outer) side, 2 acyl side, 3 side chain; on linkers, the order of the positions; unused ones are H or OH. Square brackets hold non-standard residues; d marks the D form. Peptide text beside a SMILES is read from it. ξ: configuration not given here. X1 = CN(C(Cc1cn(Cc2ccc(Br)cc2)c2ccccc12)C(=O)[*:2])[*:1]; ξAla(CF3) = NC(CC(F)(F)F)C(=O)O; X2 = N#CCCC(O[*:1])C(=O)[*:2]; NMeL = CN[CH](CC(C)C)C(=O)O; NMeA = CN[CH](C)C(=O)O
# Tests used:
# Sec61α R66I = Sec61α R66I (Canis lupus familiaris, UniProt P38377, R66I); test: Luciferase reporter assay in HEK293 cells expressing Sec61α R66I; set-up: remaining activity: dose or concentration left out as unconfirmed
# Procedure: (§1) Data are mean values ± s.d. from n = 2 independent experiments.
# (§2) HEK293T cells (0.3 × 10^6) were seeded per well of a six-well plate and incubated at 37 °C in 5% CO2 for 24 h to adhere. Each of the two wells was transfected with 1 µg of plasmid encoding a luciferase with the signal peptide of either VCAM1 or pPL using PEI in a 5:1 ratio, after which cells were returned to the incubator for a further 24 h. Transfected cells were then resuspended following trypsinization, cell count estimated using a TC20 Automated Cell Counter (BioRad) and diluted to seed a 96-well flat-bottom plate with 1.6 × 10^4 cells per well. […] Cells were then incubated for a further 24 h, after which the luciferase-containing media were transferred to a clean 96-well plate and stored at −20 °C. Luciferase activity of the media was estimated using a Gaussia-GLOW Juice Luciferase Assay kit from PJK Biotech GmbH as per the manufacturer’s instructions. Luminescence was measured using an EnSpire Multimode plate reader (PerkinElmer). Background luminescence from media placed in a well with neither cells nor drug was subtracted from all values, and measurements were calculated as a percentage of luminescence intensity of a well expressing the appropriate luciferase construct in the absence of any drug. Curves were fitted, and IC50 values were calculated using GraphPad Prism 8.
# (§3) WT canine Sec61 was cloned into pcDNA5/FRT/TO (Thermo Fisher Scientific), and point mutations were generated using PCR. All mutants were sequence verified. HEK293 Flp-In T-REx cells (Thermo Fisher Scientific, R78007) were cultured in Dulbecco’s modified Eagle’s medium (Gibco) supplemented with 10% FBS (Gibco) at 37 °C in a humidified 5% CO2 atmosphere. Approximately 0.3 µg of pOG44 and 1 µg of targeting construct plasmids were mixed in 250 µl of OptiMEM (Thermo Fisher Scientific, 51985-026). A total of 3 µl (3 µg) Lipofectamine3000 transfection reagent was then added to the DNA mix and incubated at room temperature for 20 min, and the whole mixture was added to the cells. Cells were exposed to 100 µg ml^−^1 hygromycin B (Invitrogen) and 10 µg ml^−^1 blasticidin for 3–4 weeks until the appearance of resistant colonies. Colonies were expanded into T75 flasks and induced with doxycycline (Sigma-Aldrich, D9891) at a concentration of 1–5 µg ml^−^1 for 48 h. Cells were collected, and total RNA was extracted followed by cDNA amplification and sequencing of Sec61 with gene-specific PCR primers to confirm. Cells were then used for the luciferase reporter assays as above.
# (§4) Data are mean values ± SD and are representative of n = 2 independent experiments.
# Sec61α Q294A = Sec61α Q294A (Canis lupus familiaris, UniProt P38377, Q294A); test: Luciferase reporter assay in HEK293 cells expressing Sec61α Q294A; set-up: remaining activity: dose or concentration left out as unconfirmed; conditions: HEK293, 24 h, read-out: luciferase reporter activity (% of no-drug control), Q294A
# Procedure: as §1, §2, §3, §4
# Vero E6 cells = conditions: Mock infected 48 h
# Sec61α T86M = Sec61α T86M (Canis lupus familiaris, UniProt P38377, T86M); test: Luciferase reporter assay in HEK293 cells expressing Sec61α T86M; conditions: HEK293, 24 h, read-out: luciferase reporter activity (% of no-drug control), T86M
# Procedure: as §1, §2
# HEK293 Flp-In T-REx cells (Thermo Fisher Scientific, R78007) were cultured in Dulbecco’s modified Eagle’s medium (Gibco) supplemented with 10% FBS (Gibco) at 37 °C in a humidified 5% CO2 atmosphere. Approximately 0.3 µg of pOG44 and 1 µg of targeting construct plasmids were mixed in 250 µl of OptiMEM (Thermo Fisher Scientific, 51985-026). A total of 3 µl (3 µg) Lipofectamine3000 transfection reagent was then added to the DNA mix and incubated at room temperature for 20 min, and the whole mixture was added to the cells. Cells were exposed to 100 µg ml^−^1 hygromycin B (Invitrogen) and 10 µg ml^−^1 blasticidin for 3–4 weeks until the appearance of resistant colonies. Colonies were expanded into T75 flasks and induced with doxycycline (Sigma-Aldrich, D9891) at a concentration of 1–5 µg ml^−^1 for 48 h. Cells were collected, and total RNA was extracted followed by cDNA amplification and sequencing of Sec61 with gene-specific PCR primers to confirm. Cells were then used for the luciferase reporter assays as above.
# as §4
# Sec61α V303A = Sec61α V303A (Canis lupus familiaris, UniProt P38377, V303A); test: Luciferase reporter assay in HEK293 cells expressing Sec61α V303A; set-up: remaining activity: dose or concentration left out as unconfirmed; conditions: HEK293, 24 h, read-out: luciferase reporter activity (% of no-drug control), V303A
# Procedure: as §1, §2, §3, §4
# SARS-CoV-2 = type: cell-based; conditions: 48 h
# Sec61α T86M, sequence (P60468 whole entry): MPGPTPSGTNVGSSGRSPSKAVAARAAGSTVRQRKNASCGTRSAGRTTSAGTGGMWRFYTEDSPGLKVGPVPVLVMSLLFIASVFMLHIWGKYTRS
# Sec61α T86M, sequence (P38377 whole entry T86M): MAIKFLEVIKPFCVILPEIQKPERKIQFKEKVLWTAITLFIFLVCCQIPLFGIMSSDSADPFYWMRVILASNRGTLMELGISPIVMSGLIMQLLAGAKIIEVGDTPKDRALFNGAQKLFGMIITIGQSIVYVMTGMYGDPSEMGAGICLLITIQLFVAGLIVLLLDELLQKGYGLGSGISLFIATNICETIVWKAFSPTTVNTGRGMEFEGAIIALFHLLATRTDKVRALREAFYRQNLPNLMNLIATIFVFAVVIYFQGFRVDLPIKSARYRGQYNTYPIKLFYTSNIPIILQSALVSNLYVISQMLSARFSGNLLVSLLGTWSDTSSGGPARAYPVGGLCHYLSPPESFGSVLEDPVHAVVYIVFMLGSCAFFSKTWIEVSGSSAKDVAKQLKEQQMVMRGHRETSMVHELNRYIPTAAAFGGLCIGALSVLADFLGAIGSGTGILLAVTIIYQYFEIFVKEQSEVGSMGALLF
# Sec61α T86M, sequence (P60059 whole entry, further chain): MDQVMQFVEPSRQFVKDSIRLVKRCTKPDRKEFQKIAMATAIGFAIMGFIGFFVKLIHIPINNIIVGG
# Sec61α V303A, sequence (P60059 whole entry): as the sequence (P60059 whole entry, further chain) above
# Sec61α V303A, sequence (P38377 whole entry V303A): as the sequence (P38377 whole entry T86M) above, with M86T, V303A counted along it
# Sec61α V303A, sequence (P60468 whole entry, further chain): as the sequence (P60468 whole entry) above
# Sec61α Q294A, sequence (P60059 whole entry): as the sequence (P60059 whole entry, further chain) above
# Sec61α Q294A, sequence (P38377 whole entry Q294A): as the sequence (P38377 whole entry T86M) above, with M86T, Q294A counted along it
# Sec61α Q294A, sequence (P60468 whole entry, further chain): as the sequence (P60468 whole entry) above
# Sec61α R66I, sequence (P38377 whole entry R66I): as the sequence (P38377 whole entry T86M) above, with R66I, M86T counted along it
# Sec61α R66I, sequence (P60059 whole entry, further chain): as the sequence (P60059 whole entry, further chain) above
# Sec61α R66I, sequence (P60468 whole entry, further chain): as the sequence (P60468 whole entry) above
smiles,measurement,setting,value
CC(C)CC1NC(=O)C(Cc2cn(Cc3ccc(Br)cc3)c3ccccc23)N(C)C(=O)C(CC(F)(F)F)NC(=O)C(CC(C)C)N(C)C(=O)C(CC(F)(F)F)NC(=O)C(CCC#N)OC(=O)C(C)N(C)C1=O (stereo not drawn) [KZR-8445] (cyclo([X1]L[NMeA][X2][ξAla(CF3)][NMeL][ξAla(CF3)]); configuration not given here),remaining activity at 0.00018303 µM,"Sec61α R66I; HEK293, 24 h, read-out: luciferase reporter activity (% of no-drug control), R66I, Drug nM (log10) 0.18303",90.3%
same,remaining activity at 0.000660151 µM,"Sec61α R66I; HEK293, 24 h, read-out: luciferase reporter activity (% of no-drug control), R66I, Drug nM (log10) 0.660151",85.2%
same,remaining activity at 0.00113727 µM,"Sec61α R66I; HEK293, 24 h, read-out: luciferase reporter activity (% of no-drug control), R66I, Drug nM (log10) 1.13727",74.3%
same,remaining activity,"Sec61α R66I; HEK293, 24 h, read-out: luciferase reporter activity (% of no-drug control), R66I, Drug nM (log10) 1.61439",58.4%
same,remaining activity,"Sec61α R66I; HEK293, 24 h, read-out: luciferase reporter activity (% of no-drug control), R66I, Drug nM (log10) 2.09151",48.6%
same,remaining activity,"Sec61α R66I; HEK293, 24 h, read-out: luciferase reporter activity (% of no-drug control), R66I, Drug nM (log10) 2.56864",41.2%
same,remaining activity,"Sec61α R66I; HEK293, 24 h, read-out: luciferase reporter activity (% of no-drug control), R66I, Drug nM (log10) 3.04576",39.3%
same,remaining activity,"Sec61α R66I; HEK293, 24 h, read-out: luciferase reporter activity (% of no-drug control), R66I, Drug nM (log10) 3.52288",35.2%
same,remaining activity at 0.004 µM,"Sec61α R66I; HEK293, 24 h, read-out: luciferase reporter activity (% of no-drug control), R66I, Drug nM (log10) 4",39%
same,remaining activity at 0.00050805 µM,"Sec61α R66I; HEK293, 24 h, read-out: luciferase reporter activity (% of no-drug control), R66I, Drug nM (log10) -0.29409",90%
same,effect of R66I mutation on sensitivity in secreted GLuc assay,Sec61α R66I; HEK293 cells,conferred resistance
same,remaining activity at 0.00018303 µM,Sec61α Q294A; Drug nM (log10) 0.18303,80.7%
same,remaining activity at 0.000660151 µM,Sec61α Q294A; Drug nM (log10) 0.660151,67.2%
same,remaining activity at 0.00113727 µM,Sec61α Q294A; Drug nM (log10) 1.13727,44.1%
same,remaining activity,Sec61α Q294A; Drug nM (log10) 1.61439,22.4%
same,remaining activity,Sec61α Q294A; Drug nM (log10) 2.09151,11%
same,remaining activity,Sec61α Q294A; Drug nM (log10) 2.56864,4.26%
same,remaining activity,Sec61α Q294A; Drug nM (log10) 3.04576,2.2%
same,remaining activity,Sec61α Q294A; Drug nM (log10) 3.52288,1.85%
same,remaining activity at 0.004 µM,Sec61α Q294A; Drug nM (log10) 4,2.09%
same,remaining activity at 0.000508 µM,Sec61α Q294A; Drug nM (log10) -0.29409,89.6%
same,cell viability,Vero E6 cells; 0.01 uM,91.0268 and 102.167 and 114.581
same,cell viability,Vero E6 cells; 0.04 uM,90.9801 and 99.0668 and 98.0954
same,cell viability,Vero E6 cells; 0.12 uM,93.1234 and 96.6644 and 96.0334
same,cell viability,Vero E6 cells; 0.37 uM,79.1404 and 83.8559 and 91.7442
same,cell viability,Vero E6 cells; 1.11 uM,83.2343 and 88.2826 and 88.422
same,cell viability,Vero E6 cells; 3.33 uM,85.0888 and 89.2631 and 88.8876
same,cell viability,Vero E6 cells; 10 uM,76.0738 and 86.0259 and 84.7152
same,remaining activity at 0.00018303 µM,Sec61α T86M; Drug nM (log10) 0.18303,84.6%
same,remaining activity at 0.000660151 µM,Sec61α T86M; Drug nM (log10) 0.660151,76%
same,remaining activity at 0.00113727 µM,Sec61α T86M; Drug nM (log10) 1.13727,53.5%
same,remaining activity,Sec61α T86M; Drug nM (log10) 1.61439,28.5%
same,remaining activity,Sec61α T86M; Drug nM (log10) 2.09151,12.1%
same,remaining activity,Sec61α T86M; Drug nM (log10) 2.56864,5.08%
same,remaining activity,Sec61α T86M; Drug nM (log10) 3.04576,2.62%
same,remaining activity,Sec61α T86M; Drug nM (log10) 3.52288,2.32%
same,remaining activity at 0.004 µM,Sec61α T86M; Drug nM (log10) 4,2.59%
same,remaining activity at 0.00018303 µM,Sec61α V303A; Drug nM (log10) 0.18303,95.1%
same,remaining activity at 0.000660151 µM,Sec61α V303A; Drug nM (log10) 0.660151,82.2%
same,remaining activity at 0.00113727 µM,Sec61α V303A; Drug nM (log10) 1.13727,64.5%
same,remaining activity,Sec61α V303A; Drug nM (log10) 1.61439,42%
same,remaining activity,Sec61α V303A; Drug nM (log10) 2.09151,21.1%
same,remaining activity,Sec61α V303A; Drug nM (log10) 2.56864,8.79%
same,remaining activity,Sec61α V303A; Drug nM (log10) 3.04576,3.93%
same,remaining activity,Sec61α V303A; Drug nM (log10) 3.52288,2.95%
same,remaining activity at 0.004 µM,Sec61α V303A; Drug nM (log10) 4,3.21%
same,remaining activity at 0.00050805 µM,Sec61α V303A; Drug nM (log10) -0.29409,96.2%
same,viral genome copy number,SARS-CoV-2; 0.01 uM,25500000 and 22400000 and 23500000
same,viral genome copy number,SARS-CoV-2; 0.04 uM,23500000 and 23900000 and 21400000
same,viral genome copy number,SARS-CoV-2; 0.12 uM,29500000 and 28600000 and 23600000
same,viral genome copy number,SARS-CoV-2; 0.37 uM,48700000 and 30700000 and 26200000
same,viral genome copy number,SARS-CoV-2; 1.11 uM,22100000 and 25700000 and 28600000
same,viral genome copy number,SARS-CoV-2; 3.33 uM,11600000 and 10500000 and 12800000
same,viral genome copy number,SARS-CoV-2; 10 uM,8080000 and 9090000 and 8060000

# From PMC10449633 (Nature Chemical Biology, 2023)
